Where “and” joins values, the source holds several entries; their conditions need not be identical. Identical values can stand only once.
Experiments:
PBMCs (T cells) = assay: 10-day IFN-γ ELIspot for low-frequency T cells; assay type: cell-based, human; settings: for Patients Proportion (%) responding: breast and ovarian cancer patients; for Patients Proportion (%) responding / Healthy Donor Proportion (%) responding: 10 μg/mL polypeptide, positive = p<0.05 vs no antigen and >1:100,000; for Healthy Donor Proportion (%) responding: healthy donors
Experimental: An equal volume of Hank's balanced salt solution (HBSS) was added to the blood samples. Twenty-five mL of diluted blood was overlaid onto 15 mL of Ficoll-Paque in a 50 mL conical test tube centrifuged at 374×g for 35 minutes at room temperature. Following centrifugation, the buffy coats were centrifuged (12 minutes, 216×g). The cell pellets were washed and resuspended in freezing media (RPMI supplemented with 12.5% HSA, penicillin, streptomycin, and 2 mM glutamine). Cells were adjusted to 20×10^6/mL cells, and an equal volume of cold 12.5% HSA RPMI containing 25% DMSO (Sigma D2650) was added. Cells were aliquoted and transferred to a −80° C. freezer. After overnight incubation, the vials were transferred to liquid nitrogen.
For in vitro assay, each vial of cells was thawed, and the contents were transferred to a test tube containing 12 mL of cell culture media. Following centrifugation, the cells were resuspended in 2-3 mL of medium, and viability was determined by dye exclusion. The mean number of PBMC purified from the blood of donors was 1.6±0.07×10^6 cells/mL of whole blood for healthy donors and 1.0±0.07×10^6/mL for cancer patients (p<0.0001). This cryopreservation and thawing procedure was optimized for recovery of antigen-specific T cell function (Disis et al., J. Immunol. Methods, 308(1-2):13-8 (2006)).
A 10-day ELIspot for detecting low-frequency T cells was used to determine reactivity to the FRα-derived polypeptides (Table 1). ELIspots were carried out in groups of two donors (two healthy donors, one healthy donor/one cancer patient, or two cancer patients). The assay was carried out as described elsewhere (Knutson et al., J. Clin. Invest., 107:477-84 (2001)). On day 1, 2.5×10^5 PBMCs/well were plated into 96-well plates in 3-well replicates in 200 μL of RPMI-1640 containing L-glutamine, penicillin, streptomycin, and 10% fetal calf serum (T-cell medium) in the presence or absence of 10 μg/mL polypeptide antigen. The cells were incubated at 37° C. and IL-2 (Zeptometric, Inc., Buffalo, N.Y.) was added to 10 U/mL on day 5. On day 8, 2.5×10^5/well irradiated autologous PBMCs and 10 μg/mL antigens were added. On day 9, the cells were transferred to an anti-IFN-γ-coated nitrocellulose (NC)-plate (Millipore Corporation, Bedford, Mass.). The NC-plate was incubated (37° C.) for a further 20-24 hours followed by washing three times using PBS containing 0.05% Tween-20. The plate was then incubated for 2.5 hours at RT in PBS with 5 μg/mL biotinylated anti-IFN-γ Ab, washed in PBS, and further incubated with 100 μL/well avidin-horseradish peroxidase (HRP, Vector Laboratories, Burlingame, Calif.)) for 2 hours at room temperature. After three washes in PBS, the plate was incubated with 100 μL/well HRP-colorimetric substrate (Vector Laboratories) for 20-30 minutes, rinsed with cool tap water, and allowed to dry completely. The nitrocellulose plates were read on an AID ELIspot reader (Cell Technology, Inc., Columbia, Md.; reader software v.3.1.1.). […] A 17-amino acid polypeptide (KISQAVHAAHAEINEAG; SEQ ID NO: 1) derived from chicken egg ovalbumin, produced in the same fashion as the FRα polypeptides, was used as a control polypeptide. […] The anti-IFN-γ and biotinylated anti-IFN-γ antibody pair were obtained from Mabtech (Sweden).
The T cell magnitude for each donor was summed across all 14 polypeptides which, along with the response multiplicity, was compared with age using regression. Student's t test was used for means unless the data were not normally distributed, in which case Mann-Whitney test was used. Fisher's Exact Test was used for comparing proportions. A proportion was considered elevated, relative to other polypeptides, if that proportion was statistically elevated relative to the mean proportion, 8.7%, which is the ratio of the total number of significant (p<0.05, two-tailed t test) polypeptide-specific responses over the total number of donors. […]

[1] = tested on: antibodies in diluted serums; assay type: binding, human
[2] = tested on: PBMC (CD4 and CD8 T cells); assay: IFN-γ cytokine flow cytometry; assay type: cell-based, human; settings: PBMC from three patients that had responded to FR56
Experimental: PBMC were cultured with peptide (10 μg/mL) for seven days. IL-2 (20 U/mL) were added on Day 3. After seven days, the cells were distributed into a 96-well plate with fresh irradiated autologous PBMC. Either medium alone or medium supplemented with PHA-L (20 μg/well) or recall polypeptide (10 μg/well) was added to the appropriate wells for 29 hours. Golgi-Stop was added for the last five hours followed by washing in PBS-0.5% BSA. The cells were resuspended in the same buffer containing anti-CD4-FITC and anti-CD8-APC for 30 minutes, followed by washes and fixing. The cells were permeabilized alone or with unconjugated anti-human IFN-γ (adsorption control) followed by washing and incubation with anti-human anti-IFN-γ-APC for 30 minutes. The cells were washed, fixed, and analyzed using a BD Biosciences FACscan flow cytometer and CellQuest Pro Software (version 4.0.2., BD Biosciences). A response to antigen was considered as positive if there was at least a 50% increase in IFN-γ[…] cells, and it was blocked by the adsorption control.

Row | Substance | Patients Proportion (%) responding (PBMCs (T cells)) [%] | Healthy Donor Proportion (%) responding (PBMCs (T cells)) [%] | also measured
1 | WHKGWNWTSGFNKCAVGA (listed as Homo sapiens) [FR156] | 23 | 17 | –
2 | KISQAVHAAHAEINEAG (listed as Gallus gallus) [ovalbumin-derived control polypeptide, reference compound] | – | – | responses in patients vs healthy donors (PBMCs (T cells); comparison of the two populations (FIG. 3A)): not different
3 | CKSNWHKGWNWTSGFN (listed as Homo sapiens) [FR152] | 23 | 6 | –
4 | VDQSWRKERVLNVPL (listed as Homo sapiens) [FR120] | 13 | 11 | –
5 | MTTQLLLLLVWVAVVGEAQ (listed as Homo sapiens) [FR5] | 17 | 6 | –
6 | tetanus toxin [TT] | – | – | Antibody responses [1]: 30 ± 4 µg/mL and 27 ± 4 µg/mL
7 | RTELLNVCMNAKHHKEK (listed as Homo sapiens) [FR30] | – | 6 | –
8 | QCRPWRKNACCSTNT (listed as Homo sapiens) [FR56] | – | 6 | patients with CD4 T cell response [2]: All three; patients with CD8 T cell response [2]: two of three; ELIspot response (PBMCs (T cells); healthy donor 15, no antigen control 5±1): 3±1 spots/well; recognition by ovarian vs breast cancer patients (PBMCs (T cells); p=0.05): recognized more often; ELIspot response (PBMCs (T cells); patient 37, mean±s.e.m., n=3, no antigen 26±2): 183±17 spots/well
9 | KDVSYLYRFNWNHCGEMA (listed as Homo sapiens) [FR76] | 13 | 11 | –
10 | VARFYAAAMSGAGPWA (listed as Homo sapiens) [FR225] | 7 | 22 | –
11 | LLVWVAVVGEAQTRI (listed as Homo sapiens) [FR12] | 7 | 6 | –
12 | RTSYTCKSNWHKGWNWT (listed as Homo sapiens) [FR147] | 40 | 22 | –
13 | ACKRHFIQDTCLYECS (listed as Homo sapiens) [FR95] | 23 | 6 | –
14 | PWAAWPFLLSLALMLLWL (listed as Homo sapiens) [FR238] | 23 | – | –
15 | DCEQWWEDCRTSYTCK (listed as Homo sapiens) [FR138] | 30 | 22 | –
16 | LGPWIQQVDQSWRKERV (listed as Homo sapiens) [FR113] | – | 0 | –

Source: patent US10948480B2, “Immunity to folate receptors” (priority 2006, dated 2021)
